Results on seven molecules are retold here after paper PMC8247284 (Antiviral Research, 2021).

Molecules are shown by their SMILES.

Test [1] concerns SARS-CoV-2. The test can be described thus: Confocal microscopy of dsRNA, SARS-CoV-2-infected Huh7 cells. Format: cell-based. The conditions noted are these: chloroquine 5 μM, 6 h.
For the next test, the system named is HCoV-229E. The test can be described thus: Confocal microscopy of dsRNA, HCoV-229E-infected Huh7 cells. In kind it is cell-based. The conditions noted are these: dsRNA staining, 6 h.
The test system of test [2] is LC3 puncta (autophagy pathway). The test can be described thus: High content analysis of cytoplasmic LC3 puncta in HEp-2 cells. In kind it is cell-based, human. The conditions noted are these: 3 h incubation, relative to untreated control.
Test [3] has as its system LC3-positive puncta (autophagy). The test can be described thus: Confocal microscopy of LC3 in Huh7 cells. In kind it is cell-based, human. The conditions noted are these: chloroquine 0.5, 5 and 50 μM, 6 h, infected and uninfected Huh7 cells.
Test [4] relates to alpha- and beta-coronaviruses. The test can be described thus: organism not typed. The conditions noted are these: read-out: EC50 values against the various coronaviruses.
The test system of test [5] is SARS-CoV-2. Format: cell-based.

In the case of `CCN(CC)CCCC(C)Nc1ccnc2cc(Cl)ccc12` (stereo not drawn) [Chloroquine, chloroquine], the “viral RNA synthesis (dsRNA staining)” value in the test with SARS-CoV-2 [1] is reported as “completely blocked”. Besides, the “concentration required to fully inhibit HCoV-229E replication” value in the test on HCoV-229E stood at 50 µM. For the same molecule, the “increase of the intensity of cytoplasmic LC3 puncta” value in test [2] is listed as 6 fold. Besides, in test [3], the LC3-positive puncta entry was “dose-dependent increase”. Also, the EC50 in test [4] was 0.12 to 12 µM. With `N#C[C@@]1(c2ccc3c(N)ncnn23)O[C@H](CO)[C@@H](O)[C@H]1O` [GS-441524], in the test with SARS-CoV-2 [5], the “log reduction of the viral copy number” value is listed as 4.3 log. For the molecule `CCN(CCO)CCCC(C)Nc1ccnc2cc(Cl)ccc12` (stereo not drawn) [Hydroxychloroquine, hydroxychloroquine], the “increase of the intensity of cytoplasmic LC3 puncta” value in test [2] is reported as 6 fold. The EC50 in test [4] was in the range of 0.12 to 12 µM. For `COc1cc(NC(C)CCCN)c2ncccc2c1` (stereo not drawn) [Primaquine, primaquine], in test [4], the EC50 is > 13 µM. The same measure, in the same setting: with `C=C[C@H]1C[N@@]2CC[C@H]1C[C@@H]2[C@@H](O)c1ccnc2ccc(OC)cc12` [Quinidine, quinidine] the figure was > 13 µM. The same measure, in the same setting: with `C=C[C@H]1C[N@@]2CC[C@H]1C[C@H]2[C@H](O)c1ccnc2ccc(OC)cc12` [Quinine, quinine] the figure was > 13 µM. Still for that read-out and setting: with `COc1cc(C)c2c(Oc3cccc(C(F)(F)F)c3)c(OC)cc(NC(C)CCCN)c2n1` (stereo not drawn) [Tafenoquine, tafenoquine] the figure was > 13 µM.

As usually defined, the EC50 is the concentration at which the effect is half-maximal.
